In US20260232823A1, “AZA-BENZAZEPINE IMMUNOCONJUGATES, AND USES THEREOF” (BOLT BIOTHERAPEUTICS, INC., priority 2023, published 2026):

Legend:
[1] = hydrolysis of the amidine group to lactam in PBS buffer; assay type: physicochemical
Description: (§1) The hydrolytic degradation rates of benzazepine and 7-azabenzazepine compounds were directly compared in PBS (pH 7.4) at 37° C. to mimic in vivo effects and in formulation buffer to simulate storage and lifetime effects. […] The half-lives (t½) of aza-benzazepine compounds azaBa-6 and azaBz-8 were 30 days and 40 days, respectively. […] The amount of lactam is normalized for each sample at the start (to) for easier rate comparisons. The 7-aza modification is stabilizing in PBS and formulation buffer by about 5-fold relative to the corresponding benzazepine compounds.

[2] = degradation of amidine to lactam in human plasma; assay type: in vitro ADME; conditions: human plasma at room temperature after 24 hours
Description: Amidine benzazepine comparator compound CBz-3 (Table 1b) degrades in PBS buffer (pH 7.4) at 40° C. to produce lactam benzazepine comparator compound CBz-5 (Table 1b) at 90% at 17 days. […] In human plasma at room temperature after 24 hours, 15% of CBz-3 degrades to CBz-5.

human TLR7 or human TLR8 = assay: HEK Reporter Assay (TLR 7/8, receptor not separated); assay type: cell-based; conditions: lactam comparator compounds
Excerpt: It was discovered that the amidine functional group of benzazepine adjuvant compounds, moieties conjugated to antibodies as immunoconjugates (WO 2020/252294; WO 2021/067242; WO 2022/125884; WO 2022/125891; WO 2022/125904; WO 2022/125908; WO 2022/125915), undergoes hydrolysis to the lactam functional group.
(§2) HEK293 reporter cells expressing human TLR7 or human TLR8 were purchased from Invivogen and vendor protocols were followed for cellular propagation and experimentation. Briefly, cells were grown to 80-85% confluence at 5% CO2 in DMEM supplemented with 10% FBS, Zeocin, and Blasticidin. Cells were then seeded in 96-well flat plates at 4×10^4 cells/well with substrate containing HEK detection medium and immunostimulatory molecules. Activity was measured using a plate reader at 620-655 nm wavelength.

human TLR7 = target: T1, human TLR7 (Homo sapiens, UniProt Q9NYK1); assay: HEK Reporter Assay, HEK293 NFKB reporter cells expressing human TLR7; assay type: cell-based
T1 construct: host or cells: HEK293 NFKB reporter cells
T1 sequence (Q9NYK1 27-1049): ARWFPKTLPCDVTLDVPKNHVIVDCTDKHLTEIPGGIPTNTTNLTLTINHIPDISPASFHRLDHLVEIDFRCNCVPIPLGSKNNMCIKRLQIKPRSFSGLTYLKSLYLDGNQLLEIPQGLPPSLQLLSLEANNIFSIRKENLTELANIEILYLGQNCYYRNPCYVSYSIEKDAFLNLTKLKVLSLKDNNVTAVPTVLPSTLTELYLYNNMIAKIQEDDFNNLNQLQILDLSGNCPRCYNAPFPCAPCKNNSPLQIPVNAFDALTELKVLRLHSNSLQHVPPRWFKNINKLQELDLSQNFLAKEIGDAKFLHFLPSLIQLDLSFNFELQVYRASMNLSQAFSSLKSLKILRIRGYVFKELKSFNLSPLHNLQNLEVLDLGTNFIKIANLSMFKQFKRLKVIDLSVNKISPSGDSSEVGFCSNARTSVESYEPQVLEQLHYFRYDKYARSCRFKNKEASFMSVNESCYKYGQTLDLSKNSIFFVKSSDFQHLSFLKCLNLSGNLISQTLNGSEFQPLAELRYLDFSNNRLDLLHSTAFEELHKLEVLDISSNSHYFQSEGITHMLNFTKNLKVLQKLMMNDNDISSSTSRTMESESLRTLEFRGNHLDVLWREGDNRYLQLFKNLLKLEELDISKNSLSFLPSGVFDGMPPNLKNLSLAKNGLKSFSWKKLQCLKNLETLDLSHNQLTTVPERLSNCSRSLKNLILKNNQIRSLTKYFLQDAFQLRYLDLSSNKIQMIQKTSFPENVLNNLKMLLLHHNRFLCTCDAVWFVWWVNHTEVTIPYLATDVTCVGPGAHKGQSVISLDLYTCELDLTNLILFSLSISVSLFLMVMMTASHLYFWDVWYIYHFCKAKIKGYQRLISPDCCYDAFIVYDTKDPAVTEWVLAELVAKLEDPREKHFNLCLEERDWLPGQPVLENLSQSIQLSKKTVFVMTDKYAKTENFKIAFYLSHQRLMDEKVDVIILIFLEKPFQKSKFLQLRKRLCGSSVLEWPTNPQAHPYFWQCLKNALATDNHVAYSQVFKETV
Description: (§3) Exemplary aza-benzazepine compounds (azaBza) of Table 1a and comparator compounds (CBz) of Table 1b were synthesized, purified, and characterized by mass spectrometry and shown to have the expected mass. Additional experimental procedures are found in the Examples. Activity against HEK293 NFKB reporter cells expressing human TLR7 or human TLR8 was measured according to Example 202.
as §2

human TLR8 = target: T2, human TLR8 (Homo sapiens, UniProt Q9NR97); assay: HEK Reporter Assay, HEK293 NFKB reporter cells expressing human TLR8; assay type: cell-based; conditions: read-out: EC50 against TLR8
T2 construct: host or cells: HEK293 NFKB reporter cells
T2 sequence (Q9NR97 27-1041): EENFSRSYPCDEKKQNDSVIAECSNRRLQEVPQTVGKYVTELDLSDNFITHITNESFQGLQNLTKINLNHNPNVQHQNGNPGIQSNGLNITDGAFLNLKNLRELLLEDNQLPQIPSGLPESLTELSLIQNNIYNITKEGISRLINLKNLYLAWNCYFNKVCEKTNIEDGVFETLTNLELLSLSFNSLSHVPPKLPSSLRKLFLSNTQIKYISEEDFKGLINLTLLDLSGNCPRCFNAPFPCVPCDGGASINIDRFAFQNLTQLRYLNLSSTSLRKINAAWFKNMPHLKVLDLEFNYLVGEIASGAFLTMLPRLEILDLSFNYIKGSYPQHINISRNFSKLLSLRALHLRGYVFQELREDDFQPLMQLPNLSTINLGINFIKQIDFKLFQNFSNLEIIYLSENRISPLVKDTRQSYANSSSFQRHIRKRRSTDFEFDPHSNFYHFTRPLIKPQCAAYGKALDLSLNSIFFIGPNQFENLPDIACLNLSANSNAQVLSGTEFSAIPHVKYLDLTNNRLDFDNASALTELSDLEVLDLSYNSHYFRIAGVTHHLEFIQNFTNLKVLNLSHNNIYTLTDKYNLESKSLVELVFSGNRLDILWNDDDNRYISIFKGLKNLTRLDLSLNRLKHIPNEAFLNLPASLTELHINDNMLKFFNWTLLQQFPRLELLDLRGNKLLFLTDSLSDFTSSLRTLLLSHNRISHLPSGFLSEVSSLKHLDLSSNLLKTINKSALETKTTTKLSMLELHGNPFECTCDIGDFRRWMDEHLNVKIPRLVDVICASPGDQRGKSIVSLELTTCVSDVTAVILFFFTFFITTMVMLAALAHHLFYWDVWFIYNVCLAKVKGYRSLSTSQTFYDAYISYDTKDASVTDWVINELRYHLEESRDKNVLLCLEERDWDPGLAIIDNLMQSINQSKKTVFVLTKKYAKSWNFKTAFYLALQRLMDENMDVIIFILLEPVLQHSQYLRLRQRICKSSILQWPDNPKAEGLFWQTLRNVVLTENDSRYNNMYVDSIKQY
Description: as §3, §2

[3] = hydrolysis of the amidine group to lactam in formulation buffer; assay type: physicochemical; conditions: formulation buffer pH 6, 22° C.; read-out: t ½ in formulation buffer (pH 6) at 22° C. (converted)
Description: A nitrogen at the 7-position is stabilizing and slows hydrolysis in aza-benzazepine compounds with a variety of substituents at the 8-position. […] The amount of lactam is normalized for each sample at the start (to) for easier rate comparisons.
as §1

[4] = PBS (pH 7.4) at 37° C., read-out: half-lives (t½), hydrolytic degradation (converted)
[5] = PBS pH 7.4, 37° C., read-out: t ½ in PBS (pH 7.4) at 37° C. (converted)

CCCN(OCC)C(=O)C1=Cc2ccc(-c3cnc(CN)nc3)cc2N=C(N)C1 [CBz-2, reference compound]
half-life [1, 4]: 6 days

CCCN(OCC)C(=O)C1=Cc2ccc(-c3cnc(CNC(=O)CCOCCOCCOCCOCCOCCOCCOCCOCCOCCOCCC(=O)O)cn3)cc2N=C(N)C1 [CBz-3]
degraded to lactam (CBz-5) [2]: 15%

CCCN(OCC)C(=O)C1=Cc2ccc(C(=O)NCCOC)cc2N=C(N)C1 [CBz-7, reference compound]
half-life [1, 4]: 8 days

CCCN(OCC)C(=O)C1=Cc2ccc(-c3cnc(CN)nc3)cc2NC(=O)C1 [CBz-8]
activity in the HEK assay (TLR 7/8 agonist) (human TLR7 or human TLR8): inactive

CCCN(OCCNC(=O)NC1CCC1)C(=O)C1=Cc2ccc(-c3cnc(CN)nc3)cc2NC(=O)C1 [CBz-9]
activity in the HEK assay (TLR 7/8 agonist) (human TLR7 or human TLR8): inactive

CCCN(CCC)C(=O)C1=Cc2ccncc2N=C(N)C1 [azaBz-2]
response against TLR7 (human TLR7): no response | EC50 (human TLR8): 5500 nM

CCCN(OCCNC(=O)OC(C)(C)C)C(=O)C1=Cc2cnc(C(=O)O)cc2N=C(N)C1 [azaBz-3, 2-amino-4-((2-((tert-butoxycarbonyl)amino)ethoxy)(propyl)carbamoyl)-3H-pyrido[4,3-b]azepine-8-carboxylic acid]
half-life [1, 5]: 20 days | half-life [3]: 30 days

CCCN(OCCNC(=O)OC(C)(C)C)C(=O)C1=Cc2cnc(S(=O)(=O)O)cc2N=C(N)C1 [azaBz-5]
half-life [1, 5]: 70 days | half-life [3]: 50 days

CCCN(OCC)C(=O)C1=Cc2cnc(-c3cnc(CN)nc3)cc2N=C(N)C1 [azaBz-6, 2-amino-8-(2-(aminomethyl)pyrimidin-5-yl)-N-ethoxy-N-propyl-3H-pyrido[4,3-b]azepine-4-carboxamide]
half-life [1, 4]: 30 days | half-life [3]: 30 days

CCCN(OCC)C(=O)C1=Cc2cnc(S(=O)(=O)NCCOC)cc2N=C(N)C1 [azaBz-7]
half-life [1, 5]: 100 days | half-life [3]: 100 days

CCCN(OCC)C(=O)C1=Cc2cnc(S(=O)(=O)N(C)CCOC)cc2N=C(N)C1 [azaBz-8]
half-life [1, 4]: 40 days | half-life [3]: 40 days

CCCN(OCCNC(=O)OC(C)(C)C)C(=O)C1=Cc2ccncc2N=C(N)C1 [azaBz-24]
EC50 (human TLR7; read-out: EC50 against TLR7): 842 nM | EC50 (human TLR8): 196 nM
